Data from patent US20120302954A1, “EXPANDABLE DEVICES COATED WITH A PACLITAXEL COMPOSITION” (priority 2011, published 2012).
Blank lines part the entries; values can stand above or below the compound they belong to.

What was measured:
[1] = Percent drug content change of coated cobalt-chromium 18 mm stent over 0 to 12 weeks (FIG. 1); format: physicochemical; conditions: 0.02 weight percent BHT per total basecoat solids; 8 weeks and 12 weeks, ambient conditions (25° C.)
Description: Referring to FIG. 1, there is illustrated in graphical format, the results of the same drug screening as described above with the solution applied to a cobalt-chromium, 18 mm stent. In this test, two sets of solution samples were utilized, one with sirolimus and polymer solution containing the antioxidant and one with sirolimus and polymer solution containing no antioxidant. The antioxidant utilized was 0.02 weight percent BHT per total basecoat solids. The test was utilized to determine the percent drug content change over a time period of 0 to 12 weeks under two conditions; namely, 40° C. with 75 percent relative humidity, and ambient conditions (25° C.).

[2] = Drug concentration in liquid formulations by liquid chromatography / HPLC; format: physicochemical
Description: A series of liquid formulations were developed for the local or regional delivery of water insoluble compounds such as sirolimus and its analogs, including CCI-779, ABT-578 and everolimus, through weeping balloons and catheter injection needles. Sirolimus and its analogs are rapamycins. These liquid formulations increase the apparent solubility of the pharmacologically active but water insoluble compounds by two to four orders of magnitude as compared to the solubility limits of the compounds in water. These liquid formulations rely on the use of a very small amount of organic solvents such as Ethanol and a larger amount of safe amphiphilic (of or relating to a molecule having a polar, water soluble group attached to a non-polar, water insoluble […]) excipients such as polyethylene glycol (PEG 200, PEG 400) and vitamin E TPGS to enhance the solubility of the compounds. These liquid formulations of highly water insoluble compounds are stable and readily flowable at room temperature. Certain excipients, such as Vitamin E TPGS and BHT may be utilized to enhance the storage stability of sirolimus compounds through their anti-oxidation properties.
Table 7, shown below, summarizes the concentrations of the excipient, the co-solvents and the drug for four different liquid formulations. […]

[3] = Sirolimus tissue concentration in porcine coronary arteries by LC-MS; format: in vivo; conditions: 50 mg/ml
Protocol: In accordance with a second experiment, the efficacy of a PTCA balloon coated with the 5 percent BHT solution was tested in a porcine injury model. The balloon coating formulation of sirolimus and BHT (5 percent BHT, w/w) was made according to the procedure described above. In total, three coating solutions of sirolimus and BHT (5 percent BHT, w/w) and one coating solution without BHT were prepared for the study. A standard CYPHER® Sirolimus-eluting Coronary Stent available from the Cordis Corporation was used as a control for the study. Both FIRE STAR® PTCA balloons (3.5 mm×20 mm, with total surface area of 220 mm^2) with hydrophilic treatment and the ones without a hydrophilic treatment were tested in the study. The final coating density of sirolimus and sirolimus loss during expansion were measured by HPLC. The tissue concentration in the porcine coronary arteries was measured by liquid chromatography-mass spectroscopy (LC-MS). The amount of intimal hyperplasia was determined by standard quantitative coronary angiography (QCA) at day 30.

[4] = Protocol: Table 9, shown below, summarizes a number of injectable liquid formulations of paclitaxel utilizing combinations of ethanol, PEG 400 and water. Specifically, the formulations set forth in Table 9 were made and analyzed for their concentrations of its various constituents. The concentrations are determined by liquid chromatography and are presented as weight by volume figures. The concentration of ethanol is preferably two or less percent so as to avoid ethanol becoming an active ingredient in the formulation.
Another aqueous liquid or injectable formulation of paclitaxel is made utilizing ethanol, PEG 400 and water, and ethanol, Vitamin E TPGS, PEG400 and water. In making the first formulation, 100 mg of paclitaxel is added to 400 μl of ethanol in a pre-weighed 20 ml scintillation vial. The mixture of paclitaxel and ethanol is vortexed and heated in a 60 degree C. bath for ten minutes. Once the drug is completely solubilized, 20 ml of PEG 400 is then added to make the final paclitaxel concentration 5 mg/ml. […] In a separate experiment, a series of 20 ml scintillation vials containing Vitamin E TPGS are heated or warmed up in a 50 degree C. water bath for ten minutes. Concurrently, distilled water is also warmed in a 50 degree C. water bath. […]

percent drug content change (drug degradation) [1]: lessens drug degradation
SMILES: Cc1cc(C(C)(C)C)c(O)c(C(C)(C)C)c1 [BHT, butylated hydroxytoluene]

concentration in the final solution (HPLC assay) ([2]; ethanol less than two percent, Vitamin E TPGS, water): 15000 µg/mL
SMILES: CO[C@H]1C[C@@H]2CC[C@@H](C)[C@@](O)(O2)C(=O)C(=O)N2CCCC[C@H]2C(=O)O[C@H]([C@H](C)C[C@@H]2CC[C@@H](OC(=O)C(C)(CO)CO)[C@H](OC)C2)CC(=O)[C@H](C)/C=C(\C)[C@@H](O)[C@@H](OC)C(=O)[C@H](C)C[C@H](C)/C=C/C=C/C=C/1C [CCI-779]

Sirolimus conc in artery tissue post-deploy ([3]; 20 min, hydrophilic coat No, Acetone/ethanol/water (50/40/10), BHT 5% (PKd)): 382 ± 190 ng sirolimus/mg tissue | Sirolimus conc in artery tissue post-deploy ([3]; 20 min, hydrophilic coat No, IPA/Water (3.4/1), BHT 5% (PKb)): 218 ± 96 ng sirolimus/mg tissue | Sirolimus conc in artery tissue post-deploy ([3]; 20 min, hydrophilic coat yes, IPA/Water (3.4/1), BHT 0% (PKc)): 219 ± 85 ng sirolimus/mg tissue | Sirolimus conc in artery tissue post-deploy ([3]; 20 min, hydrophilic coat yes, IPA/Water (3.4/1), BHT 5% (Pka)): 313 ± 61 ng sirolimus/mg tissue | Sirolimus conc in artery tissue post-deploy ([3]; 24 hr, hydrophilic coat No, Acetone/ethanol/water (50/40/10), BHT 5% (PKd)): 25 ± 20 ng sirolimus/mg tissue | Sirolimus conc in artery tissue post-deploy ([3]; 24 hr, hydrophilic coat No, IPA/Water (3.4/1), BHT 5% (PKb)): 39 ± 37 ng sirolimus/mg tissue | Sirolimus conc in artery tissue post-deploy ([3]; 24 hr, hydrophilic coat yes, IPA/Water (3.4/1), BHT 0% (PKc)): 16 ± 11 ng sirolimus/mg tissue | Sirolimus conc in artery tissue post-deploy ([3]; 24 hr, hydrophilic coat yes, IPA/Water (3.4/1), BHT 5% (Pka)): 40.7 ± 14.6 ng sirolimus/mg tissue | Sirolimus conc in artery tissue post-deploy ([3]; 8 day, hydrophilic coat No, Acetone/ethanol/water (50/40/10), BHT 5% (PKd)): 21 ± 36 ng sirolimus/mg tissue | Sirolimus conc in artery tissue post-deploy ([3]; 8 day, hydrophilic coat No, IPA/Water (3.4/1), BHT 5% (PKb)): 14 ± 15 ng sirolimus/mg tissue | Sirolimus conc in artery tissue post-deploy ([3]; 8 day, hydrophilic coat yes, IPA/Water (3.4/1), BHT 0% (PKc)): 16 ± 18 ng sirolimus/mg tissue | Sirolimus conc in artery tissue post-deploy ([3]; 8 day, hydrophilic coat yes, IPA/Water (3.4/1), BHT 5% (Pka)): 9.8 ± 10.4 ng sirolimus/mg tissue | Sirolimus conc in artery tissue post-deploy ([3]; 30 day, hydrophilic coat No, Acetone/ethanol/water (50/40/10), BHT 5% (PKd)): 12 ± 18 ng sirolimus/mg tissue | Sirolimus conc in artery tissue post-deploy ([3]; 30 day, hydrophilic coat No, IPA/Water (3.4/1), BHT 5% (PKb)): 5.0 ± 4.8 ng sirolimus/mg tissue | Sirolimus conc in artery tissue post-deploy ([3]; 30 day, hydrophilic coat yes, IPA/Water (3.4/1), BHT 0% (PKc)): 3.2 ± 2.8 ng sirolimus/mg tissue | Sirolimus conc in artery tissue post-deploy ([3]; 30 day, hydrophilic coat yes, IPA/Water (3.4/1), BHT 5% (Pka)): 8.4 ± 5.7 ng sirolimus/mg tissue | concentration in the 4 mg/ml PEG 200 formulation relative to the solubility in water ([2]; PEG 200 excipient, ethanol and water co-solvents): four hundred to about one thousand
SMILES: CO[C@H]1C[C@@H]2CC[C@@H](C)[C@@](O)(O2)C(=O)C(=O)N2CCCC[C@H]2C(=O)O[C@H]([C@H](C)C[C@@H]2CC[C@@H](O)[C@H](OC)C2)CC(=O)[C@H](C)/C=C(\C)[C@@H](O)[C@@H](OC)C(=O)[C@H](C)C[C@H](C)/C=C/C=C/C=C/1C [Rapamycin, rapamycin]

fold higher than the solubility in water [4]: about 1000 fold | concentration reached in true aqueous liquid formulations ([4]; PEG 400 / Vitamin E TPGS / ethanol / water): up to 2.5 mg/ml
SMILES: CC(=O)O[C@H]1C(=O)[C@@]2(C)[C@H]([C@H](OC(=O)c3ccccc3)[C@]3(O)C[C@H](OC(=O)[C@H](O)[C@@H](NC(=O)c4ccccc4)c4ccccc4)C(C)=C1C3(C)C)[C@]1(OC(C)=O)CO[C@@H]1C[C@@H]2O [paclitaxel]
